In this assay the target is T1, purified human HDAC6 (Homo sapiens, UniProt Q9UBN7).
T1 construct: purchased BPS Bioscience 5006
T1 sequence (Q9UBN7 1-1215): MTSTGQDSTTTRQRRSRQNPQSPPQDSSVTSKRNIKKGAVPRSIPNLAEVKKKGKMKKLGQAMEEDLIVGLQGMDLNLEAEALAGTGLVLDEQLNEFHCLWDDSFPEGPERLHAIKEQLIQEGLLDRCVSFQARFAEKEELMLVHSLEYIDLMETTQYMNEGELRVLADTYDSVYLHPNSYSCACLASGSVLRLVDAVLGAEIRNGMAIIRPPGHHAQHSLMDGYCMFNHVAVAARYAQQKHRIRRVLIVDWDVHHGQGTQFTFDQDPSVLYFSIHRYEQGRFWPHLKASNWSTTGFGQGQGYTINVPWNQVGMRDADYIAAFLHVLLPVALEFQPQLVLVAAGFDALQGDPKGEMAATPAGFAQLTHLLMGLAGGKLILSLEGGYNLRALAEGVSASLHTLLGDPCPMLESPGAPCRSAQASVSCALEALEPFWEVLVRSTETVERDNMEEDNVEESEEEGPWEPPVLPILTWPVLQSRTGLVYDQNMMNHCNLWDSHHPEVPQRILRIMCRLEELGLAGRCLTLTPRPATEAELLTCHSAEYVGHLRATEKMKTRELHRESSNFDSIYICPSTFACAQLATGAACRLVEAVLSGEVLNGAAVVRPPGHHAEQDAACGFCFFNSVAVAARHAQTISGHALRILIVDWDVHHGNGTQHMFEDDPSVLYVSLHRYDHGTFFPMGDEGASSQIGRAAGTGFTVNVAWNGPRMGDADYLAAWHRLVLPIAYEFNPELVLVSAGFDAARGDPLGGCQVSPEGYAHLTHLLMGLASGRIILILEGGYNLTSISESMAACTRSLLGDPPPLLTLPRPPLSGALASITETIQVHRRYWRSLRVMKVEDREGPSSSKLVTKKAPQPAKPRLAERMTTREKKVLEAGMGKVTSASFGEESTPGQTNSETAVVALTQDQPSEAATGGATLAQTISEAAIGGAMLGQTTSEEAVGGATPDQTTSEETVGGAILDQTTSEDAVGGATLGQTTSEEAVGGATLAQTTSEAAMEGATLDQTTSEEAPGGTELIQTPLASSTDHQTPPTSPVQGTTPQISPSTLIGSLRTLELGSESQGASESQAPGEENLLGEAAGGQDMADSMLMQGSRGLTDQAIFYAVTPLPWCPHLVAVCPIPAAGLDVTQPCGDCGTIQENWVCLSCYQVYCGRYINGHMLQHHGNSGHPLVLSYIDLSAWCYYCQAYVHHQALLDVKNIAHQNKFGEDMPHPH
The assay can be described thus: HDAC6 Enzyme Assay. Type of assay: biochemical. The settings on record: compound concentration 0.37 μM, read-out: Percent Inhibition. The procedure, abridged:
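Purified human HDAC6 incubated 1 h at 30° C with Ac-Arg-Gly-Lys(Ac)-AMC peptide plus compound or DMSO; stopped with trichostatin A. Deacetylated product trypsin-digested, released AMC read by fluorescence (Ex 340/Em 460 nm). Percent inhibition at one concentration or IC50 from curves relative to DMSO controls.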

Experimental findings from US8765773B2, “Substituted hydroxamic acids and uses thereof” (Millennium Pharmaceuticals, Inc., priority 2010, dated 2014) are described below.

For orientation: inhibition means the relative decrease from the control value, in per cent.

As to `O=C(NO)c1ccc2c(=O)[nH]c(-c3cccc(-c4ccncc4)c3)nc2c1` [Compound I-396, N-hydroxy-4-oxo-2-(3-pyridin-4-ylphenyl)-3,4-dihydroquinazoline-7-carboxamide], the inhibition at 0.37 µM worked out at 62.3%. Take `O=C(NO)c1ccc2ccn(-c3ccnc(NC(=O)C4CC4)c3)c(=O)c2c1` [Compound I-397, 2-{2-[(cyclopropylcarbonyl)amino]pyridin-4-yl}-N-hydroxy-1-oxo-1,2-dihydroisoquinoline-7-carboxamide]: the inhibition at 0.37 µM turned out to be 96.3%. The figure for `O=C(NO)c1ccc2c(=O)[nH]c(-c3cccnc3)nc2c1` [Compound I-398, N-hydroxy-4-oxo-2-pyridin-3-yl-3,4-dihydroquinazoline-7-carboxamide] is 79%; for `CCn1nccc1-c1nc2cc(C(=O)NO)ccc2c(=O)[nH]1` [Compound I-399, 2-(1-ethyl-1H-pyrazol-5-yl)-N-hydroxy-4-oxo-3,4-dihydroquinazoline-7-carboxamide] it is 61.8%; for `Cc1cn(Cc2ccccc2)c(=O)c2cc(C(=O)NO)ccc12` [Compound I-400, 2-benzyl-N-hydroxy-4-methyl-1-oxo-1,2-dihydroisoquinoline-7-carboxamide] it is 73.9%.

`O=C(NO)c1ccc2c(=O)[nH]c(-c3ccccc3)nc2c1` [Compound I-401, N-hydroxy-4-oxo-2-phenyl-3,4-dihydroquinazoline-7-carboxamide]: the inhibition at 0.37 µM turned out to be 88.2%. Turning to `CC(C)Cc1nc2cc(C(=O)NO)ccc2c(=O)[nH]1` [Compound I-402, N-hydroxy-2-isobutyl-4-oxo-3,4-dihydroquinazoline-7-carboxamide], the inhibition at 0.37 µM was found to be 91.7%.

`Cc1ncc(-c2nc3cc(C(=O)NO)ccc3c(=O)[nH]2)n1C` [Compound I-403, 2-(1,2-dimethyl-1H-imidazol-5-yl)-N-hydroxy-4-oxo-3,4-dihydroquinazoline-7-carboxamide]: the inhibition at 0.37 µM was -4.61%. The figure for `O=C(NO)c1ccc2c(=O)[nH]c(-c3nc4ccccc4o3)nc2c1` [Compound I-404, 2-(1,3-benzoxazol-2-yl)-N-hydroxy-4-oxo-3,4-dihydroquinazoline-7-carboxamide] is 5.79%; for `O=C(NO)c1ccc2c(=O)[nH]c(-c3ccc4ccccc4c3)nc2c1` [Compound I-405, N-hydroxy-2-(2-naphthyl)-4-oxo-3,4-dihydroquinazoline-7-carboxamide] it is 92%; for `Cc1ccccc1Cc1nc2cc(C(=O)NO)ccc2c(=O)[nH]1` [Compound I-406, N-hydroxy-2-(2-methylbenzyl)-4-oxo-3,4-dihydroquinazoline-7-carboxamide] it is 86.6%. The figure for `NCc1cn(Cc2ccccc2)c(=O)c2cc(C(=O)NO)ccc12` [Compound I-407, 4-(aminomethyl)-2-benzyl-N-hydroxy-1-oxo-1,2-dihydroisoquinoline-7-carboxamide] is 51.1%. The figure for `O=C(NO)c1ccc2c(=O)[nH]c(CCc3ccccc3)nc2c1` [Compound I-408, N-hydroxy-4-oxo-2-(2-phenylethyl)-3,4-dihydroquinazoline-7-carboxamide] is 94.9%; for `O=C(NO)c1ccc2c(=O)[nH]c(CC3CCCCC3)nc2c1` [Compound I-409, 2-(cyclohexylmethyl)-N-hydroxy-4-oxo-3,4-dihydroquinazoline-7-carboxamide] it is 92.5%; for `COc1ccncc1-c1nc2cc(C(=O)NO)ccc2c(=O)[nH]1` [Compound I-410, N-hydroxy-2-(4-methoxypyridin-3-yl)-4-oxo-3,4-dihydroquinazoline-7-carboxamide] it is 68.1%. `O=C(NO)c1ccc2c(=O)[nH]c(Cc3ccccc3F)nc2c1` [Compound I-411, 2-(2-fluorobenzyl)-N-hydroxy-4-oxo-3,4-dihydroquinazoline-7-carboxamide]: the inhibition at 0.37 µM came to 85.1%. The value for `Cc1ccc(CCc2nc3cc(C(=O)NO)ccc3c(=O)[nH]2)o1` [Compound I-412, N-hydroxy-2-[2-(5-methyl-2-furyl)ethyl]-4-oxo-3,4-dihydroquinazoline-7-carboxamide] was 93%; that for `CC(C)(c1ccccc1)n1cnc2ccc(C(=O)NO)cc2c1=O` [Compound I-413, N-hydroxy-3-(1-methyl-1-phenylethyl)-4-oxo-3,4-dihydroquinazoline-6-carboxamide] was 94.1%; that for `O=C(NO)c1ccc2c(=O)[nH]c(-c3ccccc3Cl)nc2c1` [Compound I-414, 2-(2-chlorophenyl)-N-hydroxy-4-oxo-3,4-dihydroquinazoline-7-carboxamide] was 95.4%.

In the case of `Cn1c(-c2nc3cc(C(=O)NO)ccc3c(=O)[nH]2)cc2ccccc21` [Compound I-415, N-hydroxy-2-(1-methyl-1H-indol-2-yl)-4-oxo-3,4-dihydroquinazoline-7-carboxamide], the inhibition at 0.37 µM is 79.9%.

On to `O=C(NO)c1ccc2c(=O)[nH]c(C3CCCCC3)nc2c1` [Compound I-416, 2-cyclohexyl-N-hydroxy-4-oxo-3,4-dihydroquinazoline-7-carboxamide], for which the inhibition at 0.37 µM is 90%. The figure for `Cc1ccc(Cc2nc3cc(C(=O)NO)ccc3c(=O)[nH]2)c(C)c1` [Compound I-417, 2-(2,4-dimethylbenzyl)-N-hydroxy-4-oxo-3,4-dihydroquinazoline-7-carboxamide] is 56.7%. On to `CNCc1cn(Cc2ccccc2)c(=O)c2cc(C(=O)NO)ccc12` [Compound I-418, 2-benzyl-N-hydroxy-4-[(methylamino)methyl]-1-oxo-1,2-dihydroisoquinoline-7-carboxamide], for which the inhibition at 0.37 µM was found to be 29.5%. `CN(C)Cc1cn(Cc2ccccc2)c(=O)c2cc(C(=O)NO)ccc12` [Compound I-419, 2-benzyl-4-[(dimethylamino)methyl]-N-hydroxy-1-oxo-1,2-dihydroisoquinoline-7-carboxamide]: the inhibition at 0.37 µM was 23.2%. The figure for `O=C(NO)c1ccc2c(=O)[nH]c(C3CCCC3)nc2c1` [Compound I-420, 2-cyclopentyl-N-hydroxy-4-oxo-3,4-dihydroquinazoline-7-carboxamide] is 85.3%.
